Bounds are passed on as bounds.

The test system of data set [1] is protein tyrosine kinase (PTK). As to the kind of experiment: in vitro PTK inhibitory activity by ELISA (brain cytoplasmic tyrosine kinase extract, PGT substrate). It is filed as biochemical, mouse. The conditions noted are these: genistein as positive control; for IC50: determined in triplicate. Here is the method: After removal of the male mouse (SD) meninges, the brain was weighted and homogenized with a glass homogenizer in four volumes of cold medium (containing 20 mmol/L Tris–HCl, pH 7.5, 0.25 mol/L sucrose, 2 mmol/L DDT, 2 mmol/L EDTA, 2 mmol/L Na3VO4, 1 mmol/L DMSF, 215 mg/L aprotinin, 1 mg/L PTIFtatin, 5 mg/L leupeptin) at high speed. The mixture was centrifuged for 10 min at 1000 × g at 4 °C; the supernatant was collected and re-centrifuged for 10 min at 10,000 × g at 4 °C to obtain the target supernatant. The target supernatant that contained cytoplasmic tyrosine kinase was collected, separately packed and stored at −70 °C.
PTK activity was determined by the ELISA method. In brief, the concentrations of PTKs used to construct calibration curves were as follows: 600, 500, 341, 200 and 100 × 10^−7 U/mL for PTK. 100 μL of 20 mg/L PGT (Sigma Aldrich) in 20 mmol/L PBS solution was added to 96-well microtiter plates at 37 °C overnight. After removing excess substrate solution, PBS–Tween 20 (PBST) was used to wash the wells one time, which were dried for 2 h at 37 °C and kept at 4 °C. Subsequently, 50 μL of the above PTK extraction (50 mmol/L HEPES, pH 7.4, 20 mmol/L MgCl2, 0.1 mmol/L MnCl2, 0.2 mmol/L Na3VO4, 0.6 mmol/L ATP) was added to the 96-well plates. Then, a certain concentration of the tested compounds (10 μL) and tyrosine kinase tissue extract solution were incubated at 37 °C for 1 h. The plate was washed three times with PBST at the end of the treatment, and 100 μL of the diluted horseradish-peroxidase-labeled mouse anti-phosphotyrosine monoclonal antibody IgG2bk (Sigma Aldrich) was added to each well, and incubated at 37 °C for 30 min. After removal of the antibody complex, and then washing three times with PBST, 100 μL freshly prepared TMB horseradish peroxidase color development solution (Beijing 4A Biotech Co., Ltd, China) was added and protected from light for 10 min. The reaction was terminated by addition of 100 μL/well 1 N sulfuric acid. Absorbance was measured at 450 nm in a microplate reader (SpectraMax M5).

In the case of `O=C(c1ccc(O)c(O)c1)c1c(Cl)c(O)c(O)c(O)c1Cl` [Compound 6c], in data set [1], the “PTK inhibitory activity (in words)” value was “stronger activities than that of genistein” and the IC50 was found to be 2.97 µM.
Take `O=C(c1cccc(Cl)c1)c1ccc(O)c(O)c1` [Compound 9c]: half-maximal inhibition in data set [1] (IC50) was put at 17.8 µM.
Regarding `Oc1cc(Br)c(Cc2cc(Br)ccc2O)cc1O` [Compound 13d], in data set [1], the “PTK inhibitory activity (in words)” value is “stronger activities than that of genistein” and inhibition was half-maximal at 5.05 µM (IC50).
In turn, `COc1ccc(C(=O)c2ccccc2F)cc1OC` [Compound 1a, 2-fluoro-3′,4′-dimethoxyl benzophenone] registered a melting point of 77 to 79 °C.
With `Oc1cc(Cc2ccccc2)c(Br)c(Br)c1O` [Compound 12d], in data set [1], the IC50 was more than 50 µM.
With `O=C(c1cc(Br)ccc1O)c1cc(O)c(O)cc1Br` [Compound 13c], in data set [1], the “PTK inhibitory activity (in words)” value is “no activity” and the 50% inhibitory concentration (IC50) is more than 50 µM.
Take `O=C(c1ccccc1)c1cc(O)c(O)c(Br)c1Br` [Compound 12c]: the IC50 in data set [1] is more than 50 µM.
As for `O=C(c1ccc(O)c(O)c1)c1c(Br)c(O)c(O)c(O)c1Br` [Compound 5c], in data set [1], the “PTK inhibitory activity (in words)” value is listed as “no activity” and the IC50 was more than 50 µM.
The matching figures for `Oc1cc(Br)c(Cc2ccc(O)c(Br)c2)cc1O` [Compound 7d]: “stronger activities than that of genistein” and 6.34 µM.
`Oc1ccc(Cc2ccccc2F)cc1O` [Compound 1d, 2-fluoro-3′,4′-dihydroxyl diphenylmethane] showed a melting point of 91 to 92 °C. The compound also had an IC50 in data set [1] of more than 50 µM.
Compound `COc1ccc(C(=O)c2ccccc2I)cc1OC` [Compound 4a, 2-iodo-3′,4′-dimethoxyl benzophenone] showed a melting point of 143 to 145 °C.
With `Oc1ccc(Cc2cccc(Cl)c2)cc1O` [Compound 9d], in data set [1], the “PTK inhibitory activity (in words)” value was “stronger activities than that of genistein” and it took 12.9 µM to reach half-maximal inhibition (IC50).
For the compound `COc1ccc(C(=O)c2ccc(F)cc2)cc1OC` [Compound 3a, 4-fluoro-3′,4′-dimethoxyl benzophenone], the melting point lay in the range of 101 to 103 °C.
On to `O=C(c1ccc(O)c(O)c1)c1ccccc1Cl` [Compound 8c], for which 17.7 µM corresponded to half-maximal inhibition in data set [1] (IC50).
With `Oc1ccc(Cc2ccc(Cl)cc2)cc1O` [Compound 10d], in data set [1], the “PTK inhibitory activity (in words)” value is listed as “stronger activities than that of genistein” and the IC50 is 6.97 µM.
In data set [1], `O=C(c1ccc(Cl)cc1)c1ccc(O)c(O)c1` [Compound 10c] displayed an IC50 of 41.6 µM.
In data set [1], `O=C(c1ccccc1)c1cc(O)c(O)cc1Br` [Compound 11c] returned an IC50 of 16 µM.
Consider `Oc1ccc(Cc2c(Br)c(O)c(O)c(O)c2Br)cc1O` [Compound 5d], for which, in data set [1], the “PTK inhibitory activity (in words)” value was “no activity” and the IC50 was more than 50 µM.
Take `Oc1ccc(Cc2ccccc2Cl)cc1O` [Compound 8d]: in data set [1], the concentration for half-maximal inhibition (IC50) was 14.8 µM.
In the case of `Oc1cc(Br)c(Cc2ccccc2)cc1O` [Compound 11d], in data set [1], the “PTK inhibitory activity (in words)” value is “stronger activities than that of genistein” and half-maximal inhibition (IC50) required 6.26 µM.
As for `O=C(c1ccc(F)cc1)c1ccc(O)c(O)c1` [Compound 3c, 4-fluoro-3′,4′-dihydroxyl benzophenone], the melting point lay within 155 to 157 °C. The IC50 in data set [1] was more than 50 µM.
As to `COc1ccc(C(=O)c2cccc(F)c2)cc1OC` [Compound 2a, 3-fluoro-3′,4′-dimethoxyl benzophenone], the melting point is 103 to 105 °C.
For `Oc1ccc(Cc2ccccc2I)cc1O` [Compound 4d, 2-iodo-3′,4′-dihydroxyl diphenylmethane], the melting point fell in the range of 130 to 132 °C. For the same compound, in data set [1], the concentration for half-maximal inhibition (IC50) is more than 50 µM.
`O=C(c1ccc(O)c(O)c1)c1ccccc1F` [Compound 1c, 2-fluoro-3′,4′-dihydroxyl benzophenone] registered a melting point of 149 to 150 °C. The IC50 in data set [1] is more than 50 µM.
Compound `Oc1ccc(Cc2cccc(F)c2)cc1O` [Compound 2d, 3-fluoro-3′,4′-dihydroxyl diphenylmethane] registered a melting point of 66 to 68 °C. The same compound yielded a 50% inhibitory concentration (IC50) in data set [1] of more than 50 µM.
`Oc1ccc(Cc2ccc(F)cc2)cc1O` [Compound 3d, 4-fluoro-3′,4′-dihydroxyl diphenylmethane] yielded a melting point of 59 to 61 °C. This compound also registered an IC50 in data set [1] of more than 50 µM.
The matching figures for `O=C(c1cccc(F)c1)c1ccc(O)c(O)c1` [Compound 2c, 3-fluoro-3′,4′-dihydroxyl benzophenone]: 104 to 106 °C and more than 50 µM.
On the same counts, the results for `O=C(c1ccc(O)c(O)c1)c1ccccc1I` [Compound 4c, 2-iodo-3′,4′-dihydroxyl benzophenone] are 186 to 188 °C and more than 50 µM.
With `Oc1ccc(Cc2c(Cl)c(O)c(O)c(O)c2Cl)cc1O` [Compound 6d], in data set [1], the “PTK inhibitory activity (in words)” value is on record as “stronger activities than that of genistein” and half-maximal inhibition (IC50) required 3.96 µM.
On the same counts, the results for `O=C(c1ccc(O)c(Br)c1)c1cc(O)c(O)cc1Br` [Compound 7c] are “no activity” and more than 50 µM.
Compound `O=c1c(-c2ccc(O)cc2)coc2cc(O)cc(O)c12` [Genistein, genistein, reference compound] showed an IC50 in data set [1] of 13.6 µM.

As a reminder, the IC50 is the point on the concentration scale where inhibition reaches its midpoint. As usually defined, the melting point is the temperature, or range, at which the solid turns liquid.

These data come from PMC3189771, “Structure–Activity Relationship of Halophenols as a New Class of Protein Tyrosine Kinase Inhibitors” (International Journal of Molecular Sciences, 2011).
